# From US12180204B1, “2-(benzo[d]thiazol-2-yl)-N′-(2-(5-phenyl-1,3,4-oxadiazol-2-ylthio)acetoxy)acetimidamide as an antimicrobial compound” (priority 2023, dated 2024)
# Tested on: Bacillus cereus, Staphylococcus aureus, Pseudomonas aeruginosa, Escherichia coli, Aspergillus flavus, Chrysosporium keratinophilum
# Assay: Agar plate disc-diffusion antimicrobial test
# Format: cell-based
# Details: disc wetted with 10 μL of 10 mg/mL in DMSO; 37° C., 48 h, 72 h for fungi; DMSO control zone subtracted
# Protocol: The agar plate disc-diffusion method was applied. Sterilized filter papers (6 mm in diameter) were wetted with 10 μL of a solution of 2-(benzo[d]thiazol-2-yl)-N′-(2-(5-phenyl-1,3,4-oxadiazol-2-ylthio)acetoxy)acetimidamide (3) to be tested, containing 10 mg/mL in DMSO, and the discs were allowed to air dry. The discs were then placed onto the surface of agar plates (nutrient agar for bacteria and Sabouraud's dextrose agar for fungi) seeded with the test organism. Each plate contained 15 mL of the agar medium, previously seeded with 0.2 mL of the broth culture of each organism pregrown for 18 hours. The plates were incubated at 37° C. for 48 h, and 72 h for fungi. The inhibition zones were measured in mm. Discs impregnated with DMSO were used as a control, and its inhibition zone was subtracted from the tested compound actual inhibition zone. […] The antibacterial activity was screened against gram positive bacteria namely Bacillus cereus and Staphylococcus aureus and gram-negative bacterial strains namely Pseudomonas aeruginosa and Escherichia coli, while the antifungal activity was screened against Aspergillus flavus and Chrysosporium keratinophilum.
compound,measurement,value
"N/C(Cc1nc2ccccc2s1)=N\OC(=O)CSc1nnc(-c2ccccc2)o1 [compound 3, 2-(benzo[d]thiazol-2-yl)-N′-(2-(5-phenyl-1,3,4-oxadiazol-2-ylthio)acetoxy)acetimidamide]",antimicrobial activities (inhibition zones),high antimicrobial activities
